Reference: ChEMBL document CHEMBL1159307, “Theopederins K and L. Highly potent cytotoxic metabolites from a marine sponge Discodermia species” (J Nat Prod, 2002)
pIC50: −log10 of the molar value.

Key:
[1] = tested on: P388; test: Cytotoxicity against mouse P388 cells; type: functional, cell-based
[2] = tested on: A549; test: Cytotoxicity against human A549 cells; type: functional, cell-based

## C=C1C[C@](OC)([C@H](O)C(=O)N[C@H]2OCO[C@H]3[C@@H]2O[C@H](CC(/C=C/C/C=C/C=C/C(=O)OC)OC)C(C)(C)[C@@H]3OC)O[C@H](C)[C@@H]1C (stereo partly specified) [THEOPEDERIN K METHYL ESTER]
[1]
  pIC50: 9.52
[2]
  pIC50: 9.10

## C=C1C[C@](OC)([C@H](O)C(=O)N[C@H]2OCO[C@H]3[C@@H]2O[C@H](CC(/C=C/C/C=C/C=C/C(=O)O)OC)C(C)(C)[C@@H]3OC)O[C@H](C)[C@@H]1C (stereo partly specified) [THEOPEDERIN K]
[1]
  pIC50: 10.00
[2]
  pIC50: 8.82

## C=C1C[C@](OC)([C@H](O)C(=O)N[C@H]2OCO[C@H]3[C@@H]2O[C@H](CC(O)/C=C/C/C=C/C=C/C(=O)O)C(C)(C)[C@@H]3OC)O[C@H](C)[C@@H]1C (stereo partly specified) [THEOPEDERIN L]
[1]
  pIC50: 8.14
[2]
  pIC50: 8.49
